# Laboratory results taken from paper PMC4119689, “Investigation of the Interaction between Patulin and Human Serum Albumin by a Spectroscopic Method, Atomic Force Microscopy, and Molecular Modeling” (BioMed Research International, 2014).
# Target: T1, human serum albumin (HSA) (Homo sapiens, UniProt P02768)
# T1 construct: gene ALB
# Assay: Trp-214 fluorescence quenching titration (association constant KA at […] K), supported by time-resolved fluorescence, UV-Vis, CD and AFM; quenching described as dynamic
# Format: binding
# Details: read-out: Equation (3) / K A/M^-1 (converted)
# T1 sequence (P02768 25-609): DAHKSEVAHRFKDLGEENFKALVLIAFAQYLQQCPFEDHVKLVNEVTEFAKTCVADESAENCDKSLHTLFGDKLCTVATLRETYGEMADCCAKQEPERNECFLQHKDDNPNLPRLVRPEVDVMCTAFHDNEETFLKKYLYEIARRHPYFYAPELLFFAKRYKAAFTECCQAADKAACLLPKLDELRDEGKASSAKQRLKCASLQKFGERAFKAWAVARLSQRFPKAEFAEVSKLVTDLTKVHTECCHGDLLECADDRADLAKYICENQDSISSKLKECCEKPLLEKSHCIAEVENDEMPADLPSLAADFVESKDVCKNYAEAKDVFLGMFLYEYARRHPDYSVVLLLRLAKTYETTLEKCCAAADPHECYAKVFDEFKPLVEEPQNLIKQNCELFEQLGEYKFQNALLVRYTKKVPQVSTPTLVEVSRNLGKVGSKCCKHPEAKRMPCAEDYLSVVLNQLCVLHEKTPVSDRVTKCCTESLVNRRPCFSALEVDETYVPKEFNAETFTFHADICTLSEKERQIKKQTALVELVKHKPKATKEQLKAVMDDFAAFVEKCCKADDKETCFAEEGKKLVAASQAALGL
compound,measurement,value
O=C1C=C2C(=CCOC2O)O1 (stereo not shown) [patulin],Kd,38.5 µM
